# Measurements as given in ChEMBL document CHEMBL1132754, “Photosensitizers related to purpurin-18-N-alkylimides: a comparative in vivo tumoricidal ability of ester versus amide functionalities” (Bioorg Med Chem Lett, 2000).
# Tests used:
# Mus musculus [1] = experiment: The in vivo tumor uptake was determined by reflectance spectroscopy in mouse; assay type: functional
# Mus musculus [2] = experiment: Percent tumor response in mice (implanted with RIF tumor) on day 7 at 24 hours post injection (1.0 umol/kg); assay type: functional
# Mus musculus [3] = experiment: Tumor versus muscle uptake ratio in mice (implanted with RIFtumor)by in vivo reflectance spectroscopy at 5 min, 24 hr and 48 hr post injection (5.0 umol/kg); assay type: functional, Muscle tissue
# [4] = Partition coefficient (logP); assay type: physicochemical; conditions: octanol/water
# Mus musculus [5] = experiment: Photodynamic therapy response in mice (implanted with RIF tumor) on day 10 after administering the compound (0.4 umol/kg); Complete response; assay type: functional, organism-based
# Mus musculus [6] = experiment: Photodynamic therapy response in mice (implanted with RIF tumor) on day 15 after administering the compound (0.4 umol/kg); assay type: functional
# Mus musculus [7] = experiment: Percent tumor response in mice (implanted with RIF tumor) on day 30 after administering the compound (1.0 umol/kg); assay type: functional
# Mus musculus [8] = experiment: Photodynamic therapy response in mice (implanted with RIF tumor) on day 20 after administering the compound (0.4 umol/kg); assay type: functional
# Mus musculus [9] = experiment: Photodynamic therapy response in mice (implanted with RIF tumor) on day 25 after administering the compound (0.4 umol/kg);Tumor regrowth; assay type: functional, organism-based
# Mus musculus [10] = experiment: Photodynamic therapy response in mice (implanted with RIF tumor)after administering the compound (0.4 umol/kg); Decreased; assay type: functional, organism-based
Compound,logP [4],Tumor uptake (Mus musculus [1]) [µM/kg],Tumor response (Mus musculus [2]) [%],Ratio (Mus musculus [3]),Response (Mus musculus [5]),Response (Mus musculus [6]) [%],Response (Mus musculus [7]) [%],Response (Mus musculus [8]) [%],Response (Mus musculus [9]),Response (Mus musculus [10])
CCCCCCCOC(C)C1=C(C)c2cc3nc(c4c5[nH]c(cc6[nH]c(cc1n2)c(C)c6CC)c(C)c5C(=O)N(CCCCCC)C4=O)[C@@H](CCC(=O)NCCCCCC)[C@@H]3C (stereo partly specified),,6.58,50,3.59,,,,,,
CCCCCCNC(=O)CC[C@@H]1c2nc(cc3[nH]c(cc4[nH]c(cc5nc6c2C(=O)N(CCCCCC)C(=O)C6=C5C)c(CC)c4C)c(C(C)OCCCCC)c3C)[C@H]1C (stereo partly specified),11.3,7.33,20,3.32,,,,,,
CCCCCCCCCCOC(C)C1=C(C)c2cc3nc(c4c5[nH]c(cc6[nH]c(cc1n2)c(C)c6CC)c(C)c5C(=O)N(CCCCCC)C4=O)[C@@H](CCC(=O)OC)[C@@H]3C (stereo partly specified),,4.2,100,3.23,,,,,,
CCCCCCNC(=O)CC[C@@H]1c2nc(cc3[nH]c(cc4[nH]c(cc5nc6c2C(=O)N(CCCCCC)C(=O)C6=C5C)c(CC)c4C)c(C(C)OCCC)c3C)[C@H]1C (stereo partly specified),10.3,7,67,2.69,,,,,,

# Further lines, with some results ahead:
logP [4],Compound,Tumor uptake (Mus musculus [1]) [µM/kg],Tumor response (Mus musculus [2]) [%],Ratio (Mus musculus [3]),Response (Mus musculus [5]),Response (Mus musculus [6]) [%],Response (Mus musculus [7]) [%],Response (Mus musculus [8]) [%],Response (Mus musculus [9]),Response (Mus musculus [10])
11.3,CCCCCCCCOC(C)C1=C(C)c2cc3nc(c4c5[nH]c(cc6[nH]c(cc1n2)c(C)c6CC)c(C)c5C(=O)N(CCCCCC)C4=O)[C@@H](CCC(=O)OC)[C@@H]3C (stereo partly specified),15.7,10,2.9,,,,,,
9.3,CCCCCCN1C(=O)c2c3nc(cc4nc(cc5[nH]c(cc6[nH]c2c(c6C)C1=O)c(CC)c5C)C(C(C)OCCCC)=C4C)[C@@H](C)[C@@H]3CCC(=O)OC (stereo partly specified),12.9,100,2.22,,,,,,
9.3,CCCCCCNC(=O)CC[C@@H]1c2nc(cc3[nH]c(cc4[nH]c(cc5nc6c2C(=O)N(CCCCCC)C(=O)C6=C5C)c(CC)c4C)c(C(C)OC)c3C)[C@H]1C (stereo partly specified),6.4,0,4.35,,,,,,
10.3,CCCCCCOC(C)C1=C(C)c2cc3nc(c4c5[nH]c(cc6[nH]c(cc1n2)c(C)c6CC)c(C)c5C(=O)N(CCCCCC)C4=O)[C@@H](CCC(=O)OC)[C@@H]3C (stereo partly specified),7.27,100,8,Complete response,80,100,60,Complete response,Complete response
